Source: patent US20230141603A1, “BENZODIAZEPINE DERIVATIVES AS GABA A GAMMA1 PAM” (Hoffmann-La Roche Inc., priority 2021, published 2023)

The compounds below were run against T1, h-GABAA α5β2γ1 (Homo sapiens, UniProt P31644+Q8N1C3) (assay: Radioligand binding assay, [3H]RO7239181 competition, HEK293F membranes).
T1 construct: expressed in transfected cells; host or cells: HEK293F cells (ThermoFisher R79007), membranes
T1 sequence (P31644 32-462): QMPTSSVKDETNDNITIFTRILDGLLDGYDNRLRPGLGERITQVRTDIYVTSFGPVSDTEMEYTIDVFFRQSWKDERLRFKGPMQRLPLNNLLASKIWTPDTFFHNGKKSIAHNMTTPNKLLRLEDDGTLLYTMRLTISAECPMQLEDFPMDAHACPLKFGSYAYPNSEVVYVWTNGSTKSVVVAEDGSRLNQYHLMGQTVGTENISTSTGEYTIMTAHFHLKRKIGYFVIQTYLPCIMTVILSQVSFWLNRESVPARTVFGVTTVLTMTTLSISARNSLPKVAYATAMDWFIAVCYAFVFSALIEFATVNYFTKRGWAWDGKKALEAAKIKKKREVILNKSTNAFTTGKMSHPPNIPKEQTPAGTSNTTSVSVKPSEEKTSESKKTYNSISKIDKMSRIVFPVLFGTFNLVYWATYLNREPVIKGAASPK
T1 sequence (P47870 25-512 partner limits assumed): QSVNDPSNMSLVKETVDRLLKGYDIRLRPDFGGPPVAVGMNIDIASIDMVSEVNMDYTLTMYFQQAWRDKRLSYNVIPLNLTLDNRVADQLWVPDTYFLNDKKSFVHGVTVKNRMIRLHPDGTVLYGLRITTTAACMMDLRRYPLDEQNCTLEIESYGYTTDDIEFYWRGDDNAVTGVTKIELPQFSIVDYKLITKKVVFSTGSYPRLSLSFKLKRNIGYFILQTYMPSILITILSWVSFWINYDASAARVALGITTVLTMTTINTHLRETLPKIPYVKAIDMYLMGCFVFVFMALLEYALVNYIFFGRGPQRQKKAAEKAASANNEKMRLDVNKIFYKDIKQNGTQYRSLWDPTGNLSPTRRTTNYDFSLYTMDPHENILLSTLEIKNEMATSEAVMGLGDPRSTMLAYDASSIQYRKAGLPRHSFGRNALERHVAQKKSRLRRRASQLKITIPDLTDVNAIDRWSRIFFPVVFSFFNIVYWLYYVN
T1 sequence (Q8N1C3 36-465): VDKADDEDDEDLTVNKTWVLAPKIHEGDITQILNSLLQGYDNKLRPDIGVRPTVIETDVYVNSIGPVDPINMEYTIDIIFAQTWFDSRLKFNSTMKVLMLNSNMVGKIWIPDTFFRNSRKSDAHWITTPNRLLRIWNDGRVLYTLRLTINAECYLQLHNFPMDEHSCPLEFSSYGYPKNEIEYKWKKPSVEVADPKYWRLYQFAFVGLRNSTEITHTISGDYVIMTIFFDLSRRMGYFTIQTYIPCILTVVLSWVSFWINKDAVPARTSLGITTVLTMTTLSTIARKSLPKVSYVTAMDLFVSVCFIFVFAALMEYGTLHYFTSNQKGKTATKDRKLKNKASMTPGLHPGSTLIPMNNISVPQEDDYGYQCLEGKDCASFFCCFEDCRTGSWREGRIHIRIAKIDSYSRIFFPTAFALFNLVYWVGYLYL
Protocol: The affinity of compounds at GABAA γ1 subunit-containing receptors was measured by competition for [^3H]RO7239181 (67.3 Ci/mmol; Roche) binding to membranes from HEK293F cells (ThermoFisher R79007) expressing human (transiently transfected) receptors of composition […], α2β2γ1, α1β2γ1. For better protein expression of the α2 subunit-containing receptors, the 28 amino acid long signal peptide (Met1 to Ala28) of the human GABAA α2 subunit was substituted by the 31 amino acid long signal peptide (Met1 to Ser31) of human GABAA α5 subunit.
Harvested pellets from HEK293F cells expressing the different GABAA receptor subtypes were resuspended in Mannitol Buffer pH 7.2-7.4 (Mannitol 0.29M, Triethylamine 10 mM, Acetic acid 10 mM, EDTA 1 mM plus protease inhibitors (20 tablets Complete, Roche Diagnostics Cat. No. 05 056 489 001 per liter)), washed two times and then resuspended at 1:10 to 1:15 dilution in the same buffer. Cell disruption was performed by stirring the suspension in a Parr vessel #4637 at 435 psi for 15 minutes, and then the suspensions were centrifuged at 1000×g for 15 minutes at 4° C. (Beckman Avanti J-HC; rotor JS-4.2). The supernatant (S1) was transferred in a 21 Schott flask and the pellet (P1) was resuspended with Mannitol Buffer up to 175 ml. The resuspended pellet was transferred into a 250 ml Corning centrifugal beaker and centrifuged at 1500×g for 10 minutes at 4° C. (Beckman Avanti J-HC; rotor JS-4.2). The supernatant (S1) was then transferred in the 21 Schott flask and the pellet was discarded. The supernatants (S1) were centrifuged in 500 ml Beckman polypropylene centrifugal beaker at 15′000×g for 30 minutes at 4° C. (Beckman Avanti J-20 XP; rotor JLA-10.500). The pellet (P2) was resuspended with Mannitol Buffer 1:1 and frozen at −80° C. The supernatant (S2) was centrifuged in 100 ml Beckman polypropylene centrifugal tubes at 48000×g for 50 minutes at 4° C. (Beckman Avanti J-20 XP; rotor JA-18). The supernatant (S3) was discarded and the pellet (P3) was resuspended with 1:1 Mannitol Buffer. The P2 and P3 protein concentration was determined with the BIORAD Standard assay method with bovine serum albumin as standard and measured on the NANO-Drop 1000. The membrane suspension was aliquots (500 μl per tube) and stored at −80° C. until required. Membrane homogenates were resuspended and polytronised (Polytron PT1200E Kinematica AG) in Potassium Phosphate 10 mM, KCl 100 mM binding buffer at pH 7.4 to a final assay concentration determined with a previous experiment.
Radioligand binding assays were carried out in a volume of 200 μL (96-well plates) which contained 100 μL of cell membranes, [^3H]RO7239181 at a concentration of 1.5 nM (α5β2γ1) or 20-30 nM (α1β2γ1, α2β2γ1) and the test compound in the range of [0.3-10000]×10^−9 M. Nonspecific binding was defined by 10×10^−6 (α5β2γ1) and 30×10^−6 M RO7235136 and typically represented less than 5% (α5β2γ1) and less than 20% (α1β2γ1, α2β2γ1) of the total binding. Assays were incubated to equilibrium for 1 hour at 4° C. and then, membranes were filtered onto unifilter (96-well white microplate with bonded GF/C filters preincubated 20-50 minutes in 0.3% Polyethylenimine) with a Filtermate 196 harvester (Packard BioScience) and washed 4 times with cold Potassium Phosphate 10 mM pH 7.4, KCl 100 mM binding buffer. After drying, filter-retained radioactivity was detected by liquid scintillation counting. Ki values were calculated using Excel-Fit (Microsoft) and are the means of two determinations.

Compared with Cc1ccc2c(c1Cl)C(c1c(F)cccc1F)=NCc1nncn1-2 [Example 17, 7-chloro-6-(2,6-difluorophenyl)-8-methyl-4H-[1,2,4]triazolo[4,3-a][1,4]benzodiazepine], Fc1cccc(F)c1C1=NCc2nncn2-c2ccc(I)c(Cl)c21 [Example 34, 7-chloro-6-(2,6-difluorophenyl)-8-iodo-4H-[1,2,4]triazolo[4,3-a][1,4]benzodiazepine] is 4.3-fold lower in Ki: 1.3 nM for the first, 0.3 nM for the second.

First: Fc1ccccc1C1=NCc2nnc(-c3ccncn3)n2-c2ccc(Cl)c(Cl)c21 [Example 18, 7,8-dichloro-6-(2-fluorophenyl)-1-pyrimidin-4-yl-4H-[1,2,4]triazolo[4,3-a][1,4]benzodiazepine]
Second: Fc1ccccc1C1=NCc2nnc(-c3cccnn3)n2-c2ccc(C(F)(F)F)c(Cl)c21 [Example 27, 7-chloro-6-(2-fluorophenyl)-1-pyridazin-3-yl-8-(trifluoromethyl)-4H-[1,2,4]triazolo[4,3-a][1,4]benzodiazepine]
The Ki of the first is 2.4-fold lower: 2.6 nM for the first, 6.3 nM for the second.

First: COCCc1nnc2n1-c1ccc(Cl)c(Cl)c1C(c1c(F)cccc1F)=NC2 [Example 19, 7,8-dichloro-6-(2,6-difluorophenyl)-1-(2-methoxyethyl)-4H-[1,2,4]triazolo[4,3-a][1,4]benzodiazepine]
Second: OCc1nnc2n1-c1ccc(Br)c(Cl)c1C(c1c(F)cccc1F)=NC2 [Example 33, [8-bromo-7-chloro-6-(2,6-difluorophenyl)-4H-[1,2,4]triazolo[4,3-a][1,4]benzodiazepin-1-yl]methanol]
The Ki of the first is 1.7-fold higher: 2.5 nM for the first, 1.5 nM for the second.

Cc1ccc2c(c1Cl)C(c1c(F)cccc1F)=NCc1nnc(C)n1-2 [Example 20, 7-chloro-6-(2,6-difluorophenyl)-1,8-dimethyl-4H-[1,2,4]triazolo[4,3-a][1,4]benzodiazepine] and Cc1nnc2n1-c1ccc(C(C)(F)F)c(Cl)c1C(c1c(F)cccc1F)=NC2 [Example 22, 7-chloro-8-(1,1-difluoroethyl)-6-(2,6-difluorophenyl)-1-methyl-4H-[1,2,4]triazolo[4,3-a][1,4]benzodiazepine] are within 1.5-fold of each other in Ki: 2.9 nM for the first, 4.3 nM for the second.

CC(F)(F)c1ccc2c(c1Cl)C(c1c(F)cccc1F)=NCc1nncn1-2 [Example 21, 7-chloro-8-(1,1-difluoroethyl)-6-(2,6-difluorophenyl)-4H-[1,2,4]triazolo[4,3-a][1,4]benzodiazepine] and Fc1cccc(F)c1C1=NCc2nncn2-c2ccc(C(F)F)c(Cl)c21 [Example 23, 7-chloro-8-(difluoromethyl)-6-(2,6-difluorophenyl)-4H-[1,2,4]triazolo[4,3-a][1,4]benzodiazepine] are within 1.5-fold of each other in Ki: 4.6 nM for the first, 5.8 nM for the second.

Compared with Cc1nnc2n1-c1ccc(Br)c(Cl)c1C(c1ncccc1F)=NC2 [Example 24, 8-bromo-7-chloro-6-(3-fluoro-2-pyridyl)-1-methyl-4H-[1,2,4]triazolo[4,3-a][1,4]benzodiazepine], Fc1cccnc1C1=NCc2nncn2-c2ccc(Br)c(Cl)c21 [Example 29, 8-bromo-7-chloro-6-(3-fluoro-2-pyridyl)-4H-[1,2,4]triazolo[4,3-a][1,4]benzodiazepine] is 2.1-fold higher in Ki: 3.5 nM for the first, 7.2 nM for the second.

Going from Cc1nnc2n1-c1ccc(C(F)F)c(Cl)c1C(c1c(F)cccc1F)=NC2 [Example 25, 7-chloro-8-(difluoromethyl)-6-(2,6-difluorophenyl)-1-methyl-4H-[1,2,4]triazolo[4,3-a][1,4]benzodiazepine] to Cn1cc(-c2nnc3n2-c2ccc(Cl)c(Cl)c2C(c2c(F)cccc2F)=NC3)cn1 [Example 28, 7,8-dichloro-6-(2,6-difluorophenyl)-1-(1-methylpyrazol-4-yl)-4H-[1,2,4]triazolo[4,3-a][1,4]benzodiazepine], the Ki falls from 4.4 nM to 1.4 nM (3.1-fold).

Work on O=c1[nH]nc2n1-c1ccc(Br)c(Cl)c1C(c1ccccc1F)=NC2 [Example 26, 8-bromo-7-chloro-6-(2-fluorophenyl)-2,4-dihydro-[1,2,4]triazolo[4,3-a][1,4]benzodiazepin-1-one] yielded a Ki of 2.3 nM.
